System: plants
Assay: Test D post-emergence, other plants of Tables D2 and D4
Format: in vivo
Conditions: for ALOMY damage rating (100=total damage to plant; 0=no damage to plant) / AVEFA damage rating (100=total damage to plant; 0=no damage to plant) / BEAVA damage rating (100=total damage to plant; 0=no damage to plant) / BROTE damage rating (100=total damage to plant; 0=no damage to plant) / BRSNN damage rating (100=total damage to plant; 0=no damage to plant) / CHEAL damage rating (100=total damage to plant; 0=no damage to plant) / GALAP damage rating (100=total damage to plant; 0=no damage to plant) / HORVW damage rating (100=total damage to plant; 0=no damage to plant) / KCHSC damage rating (100=total damage to plant; 0=no damage to plant) / LOLPE damage rating (100=total damage to plant; 0=no damage to plant) / POAAN damage rating (100=total damage to plant; 0=no damage to plant) / POLCO damage rating (100=total damage to plant; 0=no damage to plant) / SINAR damage rating (100=total damage to plant; 0=no damage to plant) / STEME damage rating (100=total damage to plant; 0=no damage to plant) / VERPE damage rating (100=total damage to plant; 0=no damage to plant): "Cereals" Postemergent, evaluated after 15 d; for damage to plant (100=total damage to plant; 0=no damage to plant), ABUTH / damage to plant (100=total damage to plant; 0=no damage to plant), AMARE / damage to plant (100=total damage to plant; 0=no damage to plant), BIDPI / damage to plant (100=total damage to plant; 0=no damage to plant), BRAPL / damage to plant (100=total damage to plant; 0=no damage to plant), CYPES / damage to plant (100=total damage to plant; 0=no damage to plant), DIGSA / damage to plant (100=total damage to plant; 0=no damage to plant), ECHCG / damage to plant (100=total damage to plant; 0=no damage to plant), ELEIN / damage to plant (100=total damage to plant; 0=no damage to plant), EPHHL / damage to plant (100=total damage to plant; 0=no damage to plant), GLXMA / damage to plant (100=total damage to plant; 0=no damage to plant), IPOHE / damage to plant (100=total damage to plant; 0=no damage to plant), ORYSA / damage to plant (100=total damage to plant; 0=no damage to plant), PANMI / damage to plant (100=total damage to plant; 0=no damage to plant), SETFA / damage to plant (100=total damage to plant; 0=no damage to plant), SORVU: post-emergence
Procedure, shortened: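 Damage was rated visually from 0 (none) to 100 (total), at 20 DAA for pre-emergence and 15 d for post-emergence. Plants grew from safener-treated seed in a glasshouse at 24/18° C. or 20/16° C. day/night, 65% humidity, watered twice daily.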

SMILES: CN1CC(c2cc(C(F)(F)F)n(C)n2)C(C(=O)Nc2cccc(F)n2)C1=O (racemic) [Compound 24]
- ALOMY damage rating (100=total damage to plant; 0=no damage to plant) (Rates 130): 0
- ALOMY damage rating (100=total damage to plant; 0=no damage to plant) (Rates 250): 0
- ALOMY damage rating (100=total damage to plant; 0=no damage to plant) (Rates 500): 0
- AVEFA damage rating (100=total damage to plant; 0=no damage to plant) (Rates 130): 0
- AVEFA damage rating (100=total damage to plant; 0=no damage to plant) (Rates 250): 0
- AVEFA damage rating (100=total damage to plant; 0=no damage to plant) (Rates 500): 0
- BEAVA damage rating (100=total damage to plant; 0=no damage to plant) (Rates 130): 0
- BEAVA damage rating (100=total damage to plant; 0=no damage to plant) (Rates 250): 0
- BEAVA damage rating (100=total damage to plant; 0=no damage to plant) (Rates 500): 0
- BROTE damage rating (100=total damage to plant; 0=no damage to plant) (Rates 130): 0
- BROTE damage rating (100=total damage to plant; 0=no damage to plant) (Rates 250): 0
- BROTE damage rating (100=total damage to plant; 0=no damage to plant) (Rates 500): 0
- BRSNN damage rating (100=total damage to plant; 0=no damage to plant) (Rates 130): 0
- BRSNN damage rating (100=total damage to plant; 0=no damage to plant) (Rates 250): 0
- BRSNN damage rating (100=total damage to plant; 0=no damage to plant) (Rates 500): 0
- CHEAL damage rating (100=total damage to plant; 0=no damage to plant) (Rates 130): 0
- CHEAL damage rating (100=total damage to plant; 0=no damage to plant) (Rates 250): 10
- CHEAL damage rating (100=total damage to plant; 0=no damage to plant) (Rates 500): 40
- GALAP damage rating (100=total damage to plant; 0=no damage to plant) (Rates 130): 0
- GALAP damage rating (100=total damage to plant; 0=no damage to plant) (Rates 250): 0
- GALAP damage rating (100=total damage to plant; 0=no damage to plant) (Rates 500): 20
- HORVW damage rating (100=total damage to plant; 0=no damage to plant) (Rates 130): 0
- HORVW damage rating (100=total damage to plant; 0=no damage to plant) (Rates 250): 0
- HORVW damage rating (100=total damage to plant; 0=no damage to plant) (Rates 500): 0
- KCHSC damage rating (100=total damage to plant; 0=no damage to plant) (Rates 130): 0
- KCHSC damage rating (100=total damage to plant; 0=no damage to plant) (Rates 250): 0
- KCHSC damage rating (100=total damage to plant; 0=no damage to plant) (Rates 500): 0
- LOLPE damage rating (100=total damage to plant; 0=no damage to plant) (Rates 130): 0
- LOLPE damage rating (100=total damage to plant; 0=no damage to plant) (Rates 250): 0
- LOLPE damage rating (100=total damage to plant; 0=no damage to plant) (Rates 500): 0
- POAAN damage rating (100=total damage to plant; 0=no damage to plant) (Rates 130): 0
- POAAN damage rating (100=total damage to plant; 0=no damage to plant) (Rates 250): 0
- POAAN damage rating (100=total damage to plant; 0=no damage to plant) (Rates 500): 0
- POLCO damage rating (100=total damage to plant; 0=no damage to plant) (Rates 130): 0
- POLCO damage rating (100=total damage to plant; 0=no damage to plant) (Rates 250): 0
- POLCO damage rating (100=total damage to plant; 0=no damage to plant) (Rates 500): 0
- SINAR damage rating (100=total damage to plant; 0=no damage to plant) (Rates 130): 0
- SINAR damage rating (100=total damage to plant; 0=no damage to plant) (Rates 250): 0
- SINAR damage rating (100=total damage to plant; 0=no damage to plant) (Rates 500): 0
- STEME damage rating (100=total damage to plant; 0=no damage to plant) (Rates 130): 0
- STEME damage rating (100=total damage to plant; 0=no damage to plant) (Rates 250): 0
- STEME damage rating (100=total damage to plant; 0=no damage to plant) (Rates 500): 0
- VERPE damage rating (100=total damage to plant; 0=no damage to plant) (Rates 130): 0
- VERPE damage rating (100=total damage to plant; 0=no damage to plant) (Rates 250): 0
- VERPE damage rating (100=total damage to plant; 0=no damage to plant) (Rates 500): 20
- damage to plant (100=total damage to plant; 0=no damage to plant), ABUTH (rate 130, evaluated after 15 d): 0
- damage to plant (100=total damage to plant; 0=no damage to plant), ABUTH (rate 250, evaluated after 15 d): 0
- damage to plant (100=total damage to plant; 0=no damage to plant), ABUTH (rate 500, evaluated after 15 d): 10
- damage to plant (100=total damage to plant; 0=no damage to plant), AMARE (rate 130, evaluated after 15 d): 0
- damage to plant (100=total damage to plant; 0=no damage to plant), AMARE (rate 250, evaluated after 15 d): 0
- damage to plant (100=total damage to plant; 0=no damage to plant), AMARE (rate 500, evaluated after 15 d): 0
- damage to plant (100=total damage to plant; 0=no damage to plant), BIDPI (rate 130, evaluated after 15 d): 0
- damage to plant (100=total damage to plant; 0=no damage to plant), BIDPI (rate 250, evaluated after 15 d): 0
- damage to plant (100=total damage to plant; 0=no damage to plant), BIDPI (rate 500, evaluated after 15 d): 0
- damage to plant (100=total damage to plant; 0=no damage to plant), BRAPL (rate 130, evaluated after 15 d): 0
- damage to plant (100=total damage to plant; 0=no damage to plant), BRAPL (rate 250, evaluated after 15 d): 40
- damage to plant (100=total damage to plant; 0=no damage to plant), BRAPL (rate 500, evaluated after 15 d): 50
- damage to plant (100=total damage to plant; 0=no damage to plant), CYPES (rate 130, evaluated after 15 d): 0
- damage to plant (100=total damage to plant; 0=no damage to plant), CYPES (rate 250, evaluated after 15 d): 0
- damage to plant (100=total damage to plant; 0=no damage to plant), CYPES (rate 500, evaluated after 15 d): 10
- damage to plant (100=total damage to plant; 0=no damage to plant), DIGSA (rate 130, evaluated after 15 d): 0
- damage to plant (100=total damage to plant; 0=no damage to plant), DIGSA (rate 250, evaluated after 15 d): 0
- damage to plant (100=total damage to plant; 0=no damage to plant), DIGSA (rate 500, evaluated after 15 d): 0
- damage to plant (100=total damage to plant; 0=no damage to plant), ECHCG (rate 130, evaluated after 15 d): 0
- damage to plant (100=total damage to plant; 0=no damage to plant), ECHCG (rate 250, evaluated after 15 d): 0
- damage to plant (100=total damage to plant; 0=no damage to plant), ECHCG (rate 500, evaluated after 15 d): 0
- damage to plant (100=total damage to plant; 0=no damage to plant), ELEIN (rate 130, evaluated after 15 d): 0
- damage to plant (100=total damage to plant; 0=no damage to plant), ELEIN (rate 250, evaluated after 15 d): 0
- damage to plant (100=total damage to plant; 0=no damage to plant), ELEIN (rate 500, evaluated after 15 d): 0
- damage to plant (100=total damage to plant; 0=no damage to plant), EPHHL (rate 130, evaluated after 15 d): 0
- damage to plant (100=total damage to plant; 0=no damage to plant), EPHHL (rate 250, evaluated after 15 d): 0
- damage to plant (100=total damage to plant; 0=no damage to plant), EPHHL (rate 500, evaluated after 15 d): 20
- damage to plant (100=total damage to plant; 0=no damage to plant), GLXMA (rate 130, evaluated after 15 d): 0
- damage to plant (100=total damage to plant; 0=no damage to plant), GLXMA (rate 250, evaluated after 15 d): 0
- damage to plant (100=total damage to plant; 0=no damage to plant), GLXMA (rate 500, evaluated after 15 d): 10
- damage to plant (100=total damage to plant; 0=no damage to plant), IPOHE (rate 130, evaluated after 15 d): 0
- damage to plant (100=total damage to plant; 0=no damage to plant), IPOHE (rate 250, evaluated after 15 d): 0
- damage to plant (100=total damage to plant; 0=no damage to plant), IPOHE (rate 500, evaluated after 15 d): 10
- damage to plant (100=total damage to plant; 0=no damage to plant), ORYSA (rate 130, evaluated after 15 d): 0
- damage to plant (100=total damage to plant; 0=no damage to plant), ORYSA (rate 250, evaluated after 15 d): 0
- damage to plant (100=total damage to plant; 0=no damage to plant), ORYSA (rate 500, evaluated after 15 d): 10
- damage to plant (100=total damage to plant; 0=no damage to plant), PANMI (rate 130, evaluated after 15 d): 0
- damage to plant (100=total damage to plant; 0=no damage to plant), PANMI (rate 250, evaluated after 15 d): 0
- damage to plant (100=total damage to plant; 0=no damage to plant), PANMI (rate 500, evaluated after 15 d): 10
- damage to plant (100=total damage to plant; 0=no damage to plant), SETFA (rate 130, evaluated after 15 d): 0
- damage to plant (100=total damage to plant; 0=no damage to plant), SETFA (rate 250, evaluated after 15 d): 0
- damage to plant (100=total damage to plant; 0=no damage to plant), SETFA (rate 500, evaluated after 15 d): 10
- damage to plant (100=total damage to plant; 0=no damage to plant), SORVU (rate 130, evaluated after 15 d): 0
- damage to plant (100=total damage to plant; 0=no damage to plant), SORVU (rate 250, evaluated after 15 d): 0
- damage to plant (100=total damage to plant; 0=no damage to plant), SORVU (rate 500, evaluated after 15 d): 0
